# Tests used:
# [1] = tested on: HDAC (nuclear fraction of Hela cells); assay: Assay of enzyme inhibition of HDAC (BIOMOL Kit); type: biochemical; conditions: substrate 200 μM, 15 min at RT
# How it was run: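 Enzyme source was HeLa nuclear fraction, incubated 15 min at RT with compound and an acetyl-lysine substrate at 200 μM. IC50 values were derived from concentration-response data.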
# K562 cells = assay: Cell growth, CellTiter-Glo Luminescent Cell Viability Assay, K562; type: cell-based; conditions: Homo sapiens, 72 h incubation, read-out: IC50 antiproliferative assay K562
# How it was run: (§1)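 Exponentially growing cells exposed 72 h to a range of inhibitor concentrations. Viability measured as cellular ATP by CellTiter-Glo luminescence (2 min lysis, read after 10 min RT); IC50 calculated and binned into ranges (≤1.0, 1.0–3.0, ≥3.0 μM).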
# A549 cells = assay: Cell growth, CellTiter-Glo Luminescent Cell Viability Assay, A549; type: cell-based; conditions: Homo sapiens, 72 h incubation, read-out: IC50 antiproliferative assay A549
# How it was run: as §1
# HCT-116 cells = assay: Cell growth, CellTiter-Glo Luminescent Cell Viability Assay, HCT-116; type: cell-based; conditions: Homo sapiens, HCT116 cells, 72 h incubation, read-out: IC50 antiproliferative assay HCT116
# How it was run: as §1
IC50 [1] [µM],IC50 (K562 cells) [µM],IC50 (A549 cells) [µM],IC50 (HCT-116 cells) [µM],SMILES
0.1 to 1,≤ 1,1 to 3,1 to 3,"O=C(/C=C/c1ccc2c(c1)C(=O)CC1(CCN(Cc3cccc(F)c3)CC1)O2)NO [Example 35, (E)-3-{1′-(3-Fluoro-benzyl)-4-oxo-spiro[chromane-2,4′-piperidine]-6-yl}-N-hydroxy-acrylamide]"
0.1 to 1,1 to 3,1 to 3,≤ 1,"O=C(/C=C/c1ccc2c(c1)C(=O)CC1(CCN(Cc3ccncc3)CC1)O2)NO [Example 42, (E)-3-{1′-(Pyridin-4-ylmethyl)-4-oxo-spiro[chromane-2,4′-piperidine]-6-yl}-N-hydroxy-acrylamide]"
0.1 to 1,1 to 3,1 to 3,1 to 3,"Cn1c(CN2CCC3(CC2)CC(=O)c2cc(/C=C/C(=O)NO)ccc2O3)cc2ccccc21 [Example 64, (E)-3-{1′-(1-Methyl-1H-indol-2-ylmethyl)-4-oxo-spiro[chromane-2,4′-piperidine]-6-yl}-N-hydroxy-acrylamide]"
0.1 to 1,≥ 3,≥ 3,≥ 3,"O=C(/C=C/c1ccc2c(c1)C(=O)CC1(CCN(C(=O)NCc3ccccc3)CC1)O2)NO [Example 47, (E)-3-{1′-Benzylcarbamoyl-4-oxo-spiro[chromane-2,4′-piperidine]-6-yl}-N-hydroxy-acrylamide]"

# The next lines start with the compound.
SMILES,IC50 [1] [µM],IC50 (K562 cells) [µM],IC50 (A549 cells) [µM],IC50 (HCT-116 cells) [µM]
"CCOC(=O)N1CCC2(CC1)CC(=O)c1cc(/C=C/C(=O)NO)ccc1O2 [Example 6, (E)-3-{1′-Ethyloxycarbonyl-4-oxo-spiro[chromane-2,4′-piperidine]-6-yl}-N-hydroxy-acrylamide]",0.1 to 1,1 to 3,≥ 3,1 to 3
"O=C(/C=C/c1ccc2c(c1)C(O)CC1(CCN(Cc3ccccc3)CC1)O2)NO (centres unmarked) [Example 14, (E)-3-{1′-Benzyl-4-hydroxy-spiro[chromane-2,4′-piperidine]-6-yl}-N-hydroxy-acrylamide]",> 1,1 to 3,≥ 3,1 to 3
"CC(=O)N1CCC2(CC1)Oc1ccc(/C=C/C(=O)NO)cc1C2=O [Example 22, (E)-3-{1′-Acetyl-3-oxo-spiro[benzofuran-2(3H), 4′-piperidin]-5-yl}-N-hydroxy-acrylamide]",> 1,≥ 3,≥ 3,≥ 3
"O=C(/C=C/c1ccc2c(c1)C(=O)N(Cc1ccccc1)C1(CCN(Cc3ccccc3)CC1)O2)NO [Example 80, (E)-3-{1′-Benzyl-3,4-dihydro-3-benzyl-4-oxo-spiro[2H-(1,3)-benzoxazine-2,4′-piperidin]-6-yl}-N-hydroxy-acrylamide]",0.1 to 1,1 to 3,1 to 3,1 to 3
